Data: PubChem BioAssay AID1259407 (Chemical Carcinogenesis Research Information System (CCRIS), 2018)
Activity calls are given as the source filed them. No rule for the calls is given here.

Test system: CCRIS mutagenicity, Ames/micronucleus/aberration tests
Assay: CCRIS mutagenicity studies
[1] = Test System: AMES SALMONELLA TYPHIMURIUM, Strain/Indicator: TA98, Metabolic Activation: NONE, Method: PREINCUBATION
[2] = Test System: AMES SALMONELLA TYPHIMURIUM, Strain/Indicator: TA98, Metabolic Activation: NONE, Method: STANDARD PLATE
[3] = Test System: AMES SALMONELLA TYPHIMURIUM, Strain/Indicator: TA100, Metabolic Activation: NONE, Method: STANDARD PLATE

With `CCCCC(CC)COC(=O)c1ccc(N(C)N=O)cc1` (stereo unspecified) the mutagenic call (Test System: AMES SALMONELLA TYPHIMURIUM, Strain/Indicator: TA98, Metabolic Activation: HAMSTER, LIVER, S-9, AROCLOR 1254, Method: PREINCUBATION) was “inactive; negative”, the mutagenic call (Test System: AMES SALMONELLA TYPHIMURIUM, Strain/Indicator: TA98, Metabolic Activation: HAMSTER, LIVER, S-9, AROCLOR 1254, Method: STANDARD PLATE) was “inactive; negative” and the mutagenic call [1] was “inactive; negative”. The mutagenic call [2] was “inactive; negative”, the mutagenic call (Test System: AMES SALMONELLA TYPHIMURIUM, Strain/Indicator: TA98, Metabolic Activation: RAT, LIVER, S-9, AROCLOR 1254, Method: PREINCUBATION) was “inactive; negative” and the mutagenic call (Test System: AMES SALMONELLA TYPHIMURIUM, Strain/Indicator: TA98, Metabolic Activation: RAT, LIVER, S-9, AROCLOR 1254, Method: STANDARD PLATE) was “inactive; negative”. The mutagenic call (Test System: AMES SALMONELLA TYPHIMURIUM, Strain/Indicator: TA100, Metabolic Activation: HAMSTER, LIVER, S-9, AROCLOR 1254 (1.5 OR 3.6 MG), Method: PREINCUBATION) was “inactive; negative”, the mutagenic call (Test System: AMES SALMONELLA TYPHIMURIUM, Strain/Indicator: TA100, Metabolic Activation: HAMSTER, LIVER, S-9, AROCLOR 1254, Method: PREINCUBATION) was “inactive; negative” and the mutagenic call (Test System: AMES SALMONELLA TYPHIMURIUM, Strain/Indicator: TA100, Metabolic Activation: HAMSTER, LIVER, S-9, AROCLOR 1254, Method: STANDARD PLATE) was “inactive; negative”. For the same compound, the mutagenic call (Test System: AMES SALMONELLA TYPHIMURIUM, Strain/Indicator: TA100, Metabolic Activation: NONE, Method: PREINCUBATION) was “inactive; negative”, the mutagenic call [3] was “inactive; negative” and the mutagenic call (Test System: AMES SALMONELLA TYPHIMURIUM, Strain/Indicator: TA100, Metabolic Activation: RAT, LIVER, S-9, AROCLOR 1254 (1.5 OR 2.2 MG), Method: PREINCUBATION) was “inactive; negative”. The mutagenic call (Test System: AMES SALMONELLA TYPHIMURIUM, Strain/Indicator: TA100, Metabolic Activation: RAT, LIVER, S-9, AROCLOR 1254, Method: PREINCUBATION) was “inactive; negative”, the mutagenic call (Test System: AMES SALMONELLA TYPHIMURIUM, Strain/Indicator: TA100, Metabolic Activation: RAT, LIVER, S-9, AROCLOR 1254, Method: STANDARD PLATE) was “inactive; negative” and the mutagenic call (Test System: AMES SALMONELLA TYPHIMURIUM, Strain/Indicator: TA1535, Metabolic Activation: HAMSTER, LIVER, S-9, AROCLOR 1254 (1.5 OR 3.6 MG), Method: PREINCUBATION) was “inactive; negative”. The mutagenic call (Test System: AMES SALMONELLA TYPHIMURIUM, Strain/Indicator: TA1535, Metabolic Activation: HAMSTER, LIVER, S-9, AROCLOR 1254, Method: PREINCUBATION) was “inactive; negative”, the mutagenic call (Test System: AMES SALMONELLA TYPHIMURIUM, Strain/Indicator: TA1535, Metabolic Activation: HAMSTER, LIVER, S-9, AROCLOR 1254, Method: STANDARD PLATE) was “inactive; negative” and the mutagenic call (Test System: AMES SALMONELLA TYPHIMURIUM, Strain/Indicator: TA1535, Metabolic Activation: NONE, Method: PREINCUBATION) was “inactive; negative”. For the same compound, the mutagenic call (Test System: AMES SALMONELLA TYPHIMURIUM, Strain/Indicator: TA1535, Metabolic Activation: NONE, Method: STANDARD PLATE) was “inactive; negative”, the mutagenic call (Test System: AMES SALMONELLA TYPHIMURIUM, Strain/Indicator: TA1535, Metabolic Activation: RAT, LIVER, S-9, AROCLOR 1254 (1.5 OR 2.2 MG), Method: PREINCUBATION) was “inactive; negative” and the mutagenic call (Test System: AMES SALMONELLA TYPHIMURIUM, Strain/Indicator: TA1535, Metabolic Activation: RAT, LIVER, S-9, AROCLOR 1254, Method: PREINCUBATION) was “inactive; negative”. The mutagenic call (Test System: AMES SALMONELLA TYPHIMURIUM, Strain/Indicator: TA1535, Metabolic Activation: RAT, LIVER, S-9, AROCLOR 1254, Method: STANDARD PLATE) was “inactive; negative”, the mutagenic call (Test System: AMES SALMONELLA TYPHIMURIUM, Strain/Indicator: TA1537, Metabolic Activation: HAMSTER, LIVER, S-9, AROCLOR 1254, Method: PREINCUBATION) was “inactive; negative” and the mutagenic call (Test System: AMES SALMONELLA TYPHIMURIUM, Strain/Indicator: TA1537, Metabolic Activation: HAMSTER, LIVER, S-9, AROCLOR 1254, Method: STANDARD PLATE) was “inactive; negative”. The mutagenic call (Test System: AMES SALMONELLA TYPHIMURIUM, Strain/Indicator: TA1537, Metabolic Activation: NONE, Method: PREINCUBATION) was “inactive; negative”, the mutagenic call (Test System: AMES SALMONELLA TYPHIMURIUM, Strain/Indicator: TA1537, Metabolic Activation: NONE, Method: STANDARD PLATE) was “inactive; negative” and the mutagenic call (Test System: AMES SALMONELLA TYPHIMURIUM, Strain/Indicator: TA1537, Metabolic Activation: RAT, LIVER, S-9, AROCLOR 1254, Method: PREINCUBATION) was “inactive; negative”. The mutagenic call (Test System: AMES SALMONELLA TYPHIMURIUM, Strain/Indicator: TA1537, Metabolic Activation: RAT, LIVER, S-9, AROCLOR 1254, Method: STANDARD PLATE) was “inactive; negative”, the mutagenic call (Test System: AMES SALMONELLA TYPHIMURIUM, Strain/Indicator: TA1538, Metabolic Activation: HAMSTER, LIVER, S-9, AROCLOR 1254, Method: PREINCUBATION) was “inactive; negative” and the mutagenic call (Test System: AMES SALMONELLA TYPHIMURIUM, Strain/Indicator: TA1538, Metabolic Activation: HAMSTER, LIVER, S-9, AROCLOR 1254, Method: STANDARD PLATE) was “inactive; negative”. The mutagenic call (Test System: AMES SALMONELLA TYPHIMURIUM, Strain/Indicator: TA1538, Metabolic Activation: NONE, Method: PREINCUBATION) was “inactive; negative”, the mutagenic call (Test System: AMES SALMONELLA TYPHIMURIUM, Strain/Indicator: TA1538, Metabolic Activation: NONE, Method: STANDARD PLATE) was “inactive; negative” and the mutagenic call (Test System: AMES SALMONELLA TYPHIMURIUM, Strain/Indicator: TA1538, Metabolic Activation: RAT, LIVER, S-9, AROCLOR 1254, Method: PREINCUBATION) was “inactive; negative”. The mutagenic call (Test System: AMES SALMONELLA TYPHIMURIUM, Strain/Indicator: TA1538, Metabolic Activation: RAT, LIVER, S-9, AROCLOR 1254, Method: STANDARD PLATE) was “inactive; negative” and the mutagenic call (Test System: MOUSE LYMPHOMA, Strain/Indicator: L5178Y (TK+/TK-), Metabolic Activation: HAMSTER, LIVER, S-9, AROCLOR 1254, Method: SUSPENSION/PLATE) was “inactive; negative”.

For `C[C@H](CCC(=O)O)[C@H]1CC[C@H]2[C@@H]3CC[C@@H]4C[C@H](O)CC[C@]4(C)[C@H]3C[C@@H](O)[C@]12C`, the mutagenic call (Test System: AMES SALMONELLA TYPHIMURIUM, Strain/Indicator: TA98, Metabolic Activation: NONE, Method: FLUCTUATION TEST) was “inactive; negative”, the mutagenic call [1] was “inactive; negative” and the mutagenic call (Test System: AMES SALMONELLA TYPHIMURIUM, Strain/Indicator: TA98, Metabolic Activation: RAT, LIVER, S-9, PCB, Method: PREINCUBATION) was “inactive; negative”. The mutagenic call (Test System: AMES SALMONELLA TYPHIMURIUM, Strain/Indicator: TA100, Metabolic Activation: NONE, Method: FLUCTUATION TEST) was “inactive; negative”.

With `O=C1OC(O)C(C(Br)Br)=C1Br` (stereo unspecified) the mutagenic call [2] was “active; positive”, the mutagenic call (Test System: AMES SALMONELLA TYPHIMURIUM, Strain/Indicator: TA98, Metabolic Activation: RAT LIVER S-9, AROCLOR 1254, Method: STANDARD PLATE) was “inactive; negative” and the mutagenic call [3] was “active; positive”. For the same compound, the mutagenic call (Test System: AMES SALMONELLA TYPHIMURIUM, Strain/Indicator: TA100, Metabolic Activation: RAT LIVER S-9, AROCLOR 1254, Method: STANDARD PLATE) was “inactive; negative”.

In the case of `C=CCCCCCCCCCCCC`, the mutagenic call [2] is reported as “inactive; negative”, the mutagenic call (Test System: AMES SALMONELLA TYPHIMURIUM, Strain/Indicator: TA98, Metabolic Activation: RAT, LIVER, S-9, AROCLOR, Method: STANDARD PLATE) is reported as “inactive; negative” and the mutagenic call [3] is reported as “inactive; negative”. The mutagenic call (Test System: AMES SALMONELLA TYPHIMURIUM, Strain/Indicator: TA100, Metabolic Activation: RAT, LIVER, S-9, AROCLOR, Method: STANDARD PLATE) was “inactive; negative”, the mutagenic call (Test System: AMES SALMONELLA TYPHIMURIUM, Strain/Indicator: UTH8413, Metabolic Activation: NONE, Method: STANDARD PLATE) was “inactive; negative” and the mutagenic call (Test System: AMES SALMONELLA TYPHIMURIUM, Strain/Indicator: UTH8413, Metabolic Activation: RAT, LIVER, S-9, AROCLOR, Method: STANDARD PLATE) was “inactive; negative”. The mutagenic call (Test System: AMES SALMONELLA TYPHIMURIUM, Strain/Indicator: UTH8414, Metabolic Activation: NONE, Method: STANDARD PLATE) was “inactive; negative” and the mutagenic call (Test System: AMES SALMONELLA TYPHIMURIUM, Strain/Indicator: UTH8414, Metabolic Activation: RAT, LIVER, S-9, AROCLOR, Method: STANDARD PLATE) was “inactive; negative”.
